{
  "source": "paper PMC7830597",
  "about": "“Derivatives of Tenuazonic Acid as Potential New Multi-Target Anti-Alzheimer’s Disease Agents” (Biomolecules, 2021)",
  "key": {"[1]": {"experiment": "Metal complexation, Fe(III)/L system", "type": "physicochemical", "settings": "for log β(FemHhLl): spectrophotometric, 15% w/w DMSO/water", "description": "(§1) The chelating ability of compound 1 towards Fe(III), Cu(II) and Zn(II) was evaluated through the determination of the global formation constants of the complexes via pH-potentiometric and spectrophotometric titrations of the respective 1:1, 1:2 and 1:3 M/L systems in 15% w/w DMSO/water. The fitting analysis of the respective pH-potentiometric curves was done via Hyperquad 2008 [36] while that of the spectrophotometric absorption spectra was performed using Psequad, and the found equilibrium models are presented in Table 2. Compound 1 was chosen because of its better profile after preliminary assays (i.e., good AChE inhibition and antioxidant activity, as well as good ability to inhibit Cu^2+-induced Aβ aggregation).\n(§2) To the best of our knowledge, the determination of stability formation constants of the complexes with TA has not yet been done and so the herein calculated values for compound 1 cannot be compared with those from the literature. The metal complexation equilibrium models of compound 1 were determined by the following process: for the Fe/L and Cu/L systems, only spectrophotometric data was used due to the better quality of the experimental results obtained [the 1:1 titration (e.g., Figure 7)] allowed the determination of the stability constant corresponding to the ML species and then this value, as well as the respective spectra, was introduced in the fitting of Fe/L 1:3 or Cu/L 1:2 data]; for the Zn/L system, potentiometric data was used. For the found metal complex models contained in Table 2, MH-2L, MH-1L2 and MH-2L2 correspond to mixed ligand-hydroxo metal complexes.\n(§3) Titrations of the selected compound 1, alone or in the presence of the metal ions, were accomplished in a 15% w/w DMSO/H2O medium, at T = 25.0 ± 0.1 °C and ionic strength (I) 0.1 M KCl, by using 0.1 M KOH as titrant. Both glass and Ag/AgCl reference electrodes were previously conditioned in different DMSO/H2O mixtures of increasing DMSO % composition and the response of the glass electrode was evaluated by strong acid–strong base (HCl/KOH) calibrations with the determination of the Nernst parameters by Gran’s method. […] The spectrophotometric measurements were carried out in a 250–320 nm wavelength range at pH ca 2.5-8.0. Under the stated experimental conditions, the pKw value (13.6) was determined and subsequently used in the computations. The stepwise protonation constants of the ligands, Ki = [HiL]/[Hi-1L][H], and the overall metal–complex stability constants, β (MmHhL1) = [MmHhLl]/[M]^m[H]^h[L]^l, were calculated by fitting the pH-potentiometric and spectrophotometric data with, respectively, Hyperquad 2008 [36] and Psequad programs. The metal hydrolysis model was determined under the defined experimental conditions (I = 0.1 M KCl, 15% w/w DMSO/H2O, T = 25.0 ± 0.1 °C) and the following values of stability constants were included in the fitting of the experimental data towards the equilibrium models related to the Fe(III)/L, Cu(II)/L and Zn(II)/L systems: log β (FeH-1) = −1.79, log β (FeH-2) = −4.9, log β (FeH-4) = −20.0; log β (Cu2H-2) = −9.5; log β (ZnH-1) = −8.6, log β (ZnH-3) = −27.2, log β (Zn2H-1) = −8.6. The species distribution curves were obtained with the Hyss program."}, "[2]": {"experiment": "Metal complexation, Cu(II)/L system", "type": "physicochemical", "settings": "for log β(CumHhLl): spectrophotometric, 15% w/w DMSO/water", "description": "as §1, §2, §3"}, "Solubility in water": {"experiment": "Solubility in water", "type": "physicochemical"}, "Aβ1-42": {"target": "T1, Aβ1-42 (Homo sapiens, UniProt P05067)", "T1 construct": "Amyloid β peptide (Aβ1-42) was purchased from GeneCust as a lyophilised powder; purchased GeneCust", "T1 sequence (P05067 672-713 limits assumed)": "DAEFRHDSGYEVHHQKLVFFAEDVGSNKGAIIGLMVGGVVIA", "experiment": "biochemical", "settings": "Aβ1-42; inhibitor 40 µM; SEM < 10%; read-out: Inhib. Aβ Aggreg. Self-Induced", "description": "The anti-amyloidogenic activity of all the compounds was also evaluated in vitro, in the absence and in presence of Cu(II), by measuring the fluorescence emission of Thioflavin T (ThT).\nThe spectrofluorimetric method, based on the fluorescence emission of thioflavin T (ThT), was used to study the Aβ1-42 aggregation inhibition. Firstly, Aβ1-42 was dissolved in HFIP (1,1,1,3,3,3-Hexafluoro-2-propanol) and kept overnight at room temperature in order to obtain a dry film. […] The ligand solutions were prepared with MeOH (1mg/mL) and further with phosphate buffer. […] As a control, a solution of 30 μL of phosphate buffer and 30 μL of Aβ1-42 was used to observe the aggregation without any inhibition, while the ligand assay solutions were composed of 20 μL of phosphate buffer, 30 μL of Aβ1-42 and 10 μL of ligand. The Cu-induced aggregation studies were similarly conducted, adding 10 μL of CuCl2 to induce the fibril aggregation. Each experiment was composed of an assay and a blank sample, where the blank sample lacks Aβ1-42, to monitor the effect of the compounds on the fluorescence emission. The samples were left to incubate in a CERTOMAT WR water bath for 24 h at 37 °C with shaking. After 24 h, a Glycine-NaOH buffer (pH = 8.5) containing ThT were added to each sample in a microplate. The fluorescence signal was monitored at 446 nm (λexc) and 486 nm (λem) with a Varian Cary Eclipse fluorimeter. Amyloid β peptide (Aβ1-42) was purchased from GeneCust as a lyophilised powder and stored at −20 °C [12, 13, 14]."}, "[3]": {"experiment": "Metal complexation, Zn(II)/L system", "type": "physicochemical", "settings": "for log β(ZnmHhLl): potentiometric, 15% w/w DMSO/water", "description": "as §1\nas §2, with “For the found metal complex models contained in Table 2, MH-2L, MH-1L2 and MH-2L2 correspond to mixed ligand-hydroxo metal complexes.” left out\nTitrations of the selected compound 1, alone or in the presence of the metal ions, were accomplished in a 15% w/w DMSO/H2O medium, at T = 25.0 ± 0.1 °C and ionic strength (I) 0.1 M KCl, by using 0.1 M KOH as titrant. Both glass and Ag/AgCl reference electrodes were previously conditioned in different DMSO/H2O mixtures of increasing DMSO % composition and the response of the glass electrode was evaluated by strong acid–strong base (HCl/KOH) calibrations with the determination of the Nernst parameters by Gran’s method. […]"}, "[4]": {"settings": "pH 7.4, CL/CM = 10, CM = 10^−6 M"}},
  "note": "Marks after values point to notes of the source that are not given here.",
  "data": [
    {"smiles": "CCOC(=O)C1=C(O)C(C(C)C)NC1=O", "note": "(stereo not shown) [Compound 1, Ethyl 4-hydroxy-5-isopropyl-2-oxo-2,5-dihydro-1H-pyrrole-3-carboxylate]", "values": [
      {"measurement": "pFe (pM = −log[M])", "setting": "[1]; [4]", "result": 16.6},
      {"measurement": "log β(FemHhLl)", "setting": "[1]; species (1-22)", "result": "5.83(8) ^d"},
      {"measurement": "log β(FemHhLl)", "setting": "[1]; species (101)", "result": "9.46(7) ^d"},
      {"measurement": "log β(FemHhLl)", "setting": "[1]; species (102)", "result": "14.30(7) ^d"},
      {"measurement": "log β(FemHhLl)", "setting": "[1]; species (103)", "result": "19.4(1) ^d"},
      {"measurement": "Kd", "setting": "[2]; calculated at pH 7.4, read-out: conditional dissociation constant (K’d) for the copper complex", "result": 83, "unit": "µM"},
      {"measurement": "pCu (pM = −log[M])", "setting": "[2]; [4]", "result": 11.6},
      {"measurement": "log β(CumHhLl)", "setting": "[2]; species (1-12)", "result": "6.56(6) ^d"},
      {"measurement": "log β(CumHhLl)", "setting": "[2]; species (1-21)", "result": "−4.15(7) ^d"},
      {"measurement": "log β(CumHhLl)", "setting": "[2]; species (101)", "result": "4.08(8) ^d"},
      {"measurement": "solubility in water", "setting": "Solubility in water", "result": "insoluble in water"},
      {"measurement": "inhibition at 40 µM", "setting": "Aβ1-42", "result": 32.9, "unit": "%"},
      {"measurement": "pZn (pM = −log[M])", "setting": "[3]; [4]", "result": 6.0},
      {"measurement": "log β(ZnmHhLl)", "setting": "[3]; species (1-21)", "result": "−11.75(5) ^c"},
      {"measurement": "log β(ZnmHhLl)", "setting": "[3]; species (101)", "result": "3.16(8) ^c"}
    ]},
    {"smiles": "CCOC(=O)C1=C(O)C(Cc2ccccc2)NC1=O", "note": "(stereo not shown) [Compound 2, Ethyl 5-benzyl-4-hydroxy-2-oxo-2,5-dihydro-1H-pyrrole-3-carboxylate]", "values": [
      {"measurement": "inhibition at 40 µM", "setting": "Aβ1-42", "result": 12.4, "unit": "%"}
    ]}
  ]
}
